This is an account of results in patent publication US20250235499A1, “ANTI-OVARIAN CANCER PHARMACEUTICAL COMPOSITION AND ACTION TARGET THEREOF” (Zhejiang Chinese Medical University, priority 2024, published 2025).

In test [1] the test system is MCM2 protein in Hey cells. The test can be described thus: MCM2 protein expression in ovarian cancer cell after intervention. Format: cell-based, human. As to conditions: 24 hours, 100 μmol/L CA, 6.25 μmol/L BDMC, compared to the Control group. As to the method:
(§1) The effect of intervention on MCM2 protein expression in the SKOV3 and Hey ovarian cancer cells for 24 hours in the CA group using 100 μmol/L CA, the BDMC group using 6.25 μmol/L BDMC, and the CA+BDMC group using 100 μmol/L CA+6.25 μmol/L BDMC in Example 1 was shown in FIGS. 16A-16B, wherein A represented the expression of MCM2 protein in SKOV3 cells; B represented the expression of MCM2 protein in Hey cells compared to the Control group, #P<0.05, ##P<0.01; and compared with the CA+BDMC group, &P<0.05, &&P<0.01.

The test system of test [2] is MCM2 protein in SKOV3 cells. The description is as above. Format: cell-based, human. As to conditions: SKOV3, 24 hours, 100 μmol/L CA, 6.25 μmol/L BDMC; compared to the Control group. As to the method:
as §1

For test [3], the system named is Hey ovarian cancer cell. The test can be described thus: Tumor bearing nude mouse model (tumor volume, tumor inhibition rate, body weight). The following applies: intraperitoneal, 15 days; DDP 3 mg/kg, CA 80 mg/kg, BDMC 5 mg/kg; compared to the Control group, P<0.01. Type of test: in vivo, BALB/c nude mice. As to the method: Newly housed BALB/c nude mice were placed in an SPF grade feeding room laminar flow rack for adaptive feeding for one week, and the experimental animal status was adjusted. A Hey ovarian cancer cell was cultivated to the logarithmic growth stage, and the original culture medium was discarded. The Hey ovarian cancer cell was washed with PBS buffer, added with 0.1% trypsin digestion for digestion, added with the corresponding culture medium to terminate digestion, centrifuged at 1000 rpm for 3 minutes, and added with PBS buffer to prepare a cell suspension. The cell was counted using a hemocytometer, and the cell concentration was quantified to 5×10^7 cells/mL. After grasping and fixing the nude mouse with the left hand, and the skin at a needle inserting site on the right forelimb axilla of the nude mouse was disinfected with a 75% alcohol cotton ball. A disposable 1 mL syringe was used to inject approximately 100 μL of cell suspension subcutaneously into the posterior axilla of the right forelimb in an oblique stabbing inserting needle mode, so that each nude mouse was injected with approximately 5×10^6 cells. After vaccination, the needle inserting site was gently pressed with a cotton ball to prevent the cell suspension from leaking from a needle hole. The growth status of tumors at the vaccination site of nude mice was observed daily. After about one week, if the tumors at the vaccination site were compacted and appeared light red in color, it could be considered as successful tumor growth. At this time, the nude mice were randomly divided into 5 groups, a Control group intraperitoneally injected with physiological saline for 1 day each time; a DDP group intraperitoneally injected with cisplatin, 3 mg/kg, 3 d/time; a CA group intraperitoneally injected with CA, 80 mg/kg, 1 d/time; a BDMC group intraperitoneally injected with BDMC, 5 mg/kg, 1 d/time; a CA+BDMC group intraperitoneally injected with CA 80 mg/kg+BDMC 5 mg/kg, 1 d/time, 8 animals per group. A tumor length (L) and a […] were measured with a vernier caliper every 3 days to calculate a tumor volume. After 15 days of administration, nude mice were euthanized by dislocation of cervical vertebra, and tumor tissue was dissected. The tumor weight was weighed to calculate the tumor inhibition rate. The tumor tissue was stored in two batches at −80° C. and fixed with 4% paraformaldehyde.

In test [4] the test system is SKOV3 ovarian cancer cells. The test can be described thus: Cell migration and invasion (small chamber) with MCM2 knockdown or overexpression. Format: cell-based, human. The method, then:
(§2) The night before collecting cells, small chambers were placed in a 24 well plate. A matrix gel was taken out from the −20° C. refrigerator and placed to melt naturally on ice. The thawed matrix gel was mixed with serum-free medium in a ratio of 1:5, and 100 μL of the mixture was added to each chamber. After preparation, the 24 well plate was placed in the incubator overnight. The next day, SKOV3 and Hey ovarian cancer cells in logarithmic growth phase were knocked down with MCM2 (Control group, sh-NC group, sh-MCM2 group) and overexpressed with MCM2 (Control group, OE-NC group, OE-MCM2 group). The original culture medium was discarded, washed with PBS buffer, and digested with 0.1% trypsin. A corresponding serum-free culture medium was added to prepare a cell suspension. Cells were counted using a hemocytometer and the cell concentration was quantified at 5×10^4 cells/mL. The 24 well plate was taken out and placed in a small chamber for a migration experiment and the 24 well plate with the matrix gel for an invasion experiment. 200 μL of a corresponding cell suspension was added to an upper chamber, and 700 μL of a corresponding culture medium containing 10% FBS was added to a lower chamber. The 24 well plate was further placed in an incubator for cultivation. The 24 well plate for the migration experiment was cultured for 24 hours before being taken out, while the 24 well plate for the invasion experiment was cultured for 48 hours before being taken out. The culture medium in the small chamber was poured out. The inside of the small chamber was cleaned with a cotton swab, and washed twice with the PBS buffer. The small chamber was fixed in 4% paraformaldehyde for 30 minutes, and stained in 1% crystal violet solution for 10 minutes after fixation. The small chamber was taken out, washed twice with the PBS buffer, dried with an absorbent paper, observed and counted under a microscope. The impact of CA, BDMC, and combined administration intervention on cell migration after knocking down MCM2 in SKOV3 and Hey ovarian cancer cells was shown in FIGS. 19A-19D. The scale in FIGS. 19A-19D was 10 μM; A represented the migration of SKOV3 cells; B represented the migration of Hey cells; C represented the invasion of SKOV3 cells; and D represented the invasion of Hey cells. Compared with the sh-NC group, ##P<0.01; compared with the sh-NC+CA+BDMC group, &&P<0.01; and ** P<0.01. The impact of CA, BDMC, and combined administration intervention on cell migration after overexpression of MCM2 on the SKOV3 and Hey ovarian cancer cells was shown in FIGS. 20A-20D. The scale in FIGS. 20A-20D was 10 μM, A represented the migration of SKOV3 cells; B represented the migration of Hey cells; C represented the invasion of SKOV3 cells; and D represented the invasion of Hey cells. Compared with the OE-NC group, ##P<0.01; compared with the OE-NC+CA+BDMC group, &&P<0.01; and compared with the OE-MCM2+CA+BDMC group, ΔP<0.05, ΔΔP<0.01; and ** P<0.01.

Test [5] has as its system Hey ovarian cancer cells. The description is as above. Type of test: cell-based, human. As to the method:
as §2

Setting [6] is: SKOV3 OE-MCM2 cells (MCM2 overexpression), vs OE-MCM2 group.
Where [7] appears, read: SKOV3 OE-NC cells (empty vector), vs OE-NC group.
Setting [8] is: SKOV3 sh-MCM2 cells (MCM2 knockdown), vs sh-MCM2 group.
[9] abbreviates: SKOV3 sh-NC cells (empty vector), vs sh-NC group.
The mark [10] stands for this setting: Hey OE-MCM2 cells (MCM2 overexpression), vs OE-MCM2 group.
[11] abbreviates: Hey OE-NC cells (empty vector), vs OE-NC group.
[12] abbreviates: Hey sh-MCM2 cells (MCM2 knockdown), vs sh-MCM2 group.
Where [13] appears, read: Hey sh-NC cells (empty vector), vs sh-NC group.

With `COc1ccc(-c2coc3cc(O)ccc3c2=O)cc1O` [CA, calycosin], the “expression of the MCM2 protein” value in test [1] and in test [2] was “significantly decreased” throughout. Besides, the tumor inhibition rate result in test [3] is “significantly increased”. For the same compound, the tumor volume size result in test [3] is “significantly reduced”. Also, the “number of the invading cells” value in test [4] (setting [6]) was “no significant change”; in test [4] (setting [7]) it was “significantly reduced”; in test [4] (setting [8]), “no significant change”; in test [4] (setting [9]), “significantly reduced”; in test [5] (setting [10]) it was “no significant change”; in test [5] (setting [11]) it was “significantly reduced”. Also, the “number of the invading cells” value in test [5] (setting [12]) is “no significant change”; in test [5] (setting [13]), “significantly reduced”. Also, the “number of the migrating cells” value in test [4] (setting [6]) is given as “no significant change”; in test [4] (setting [7]), “significantly reduced”; in test [4] (setting [8]) it was “no significant change”; in test [4] (setting [9]), “significantly reduced”; in test [5] (setting [10]), “no significant change”; in test [5] (setting [11]) it was “significantly reduced”. The “number of the migrating cells” value in test [5] (setting [12]) is recorded as “no significant change”; in test [5] (setting [13]), “significantly reduced”.
